Reference: patent publication US20200179339A1, “PHARMACEUTICALS COMPOSITIONS FOR TREATMENT OF ATOPIC DERMATITIS” (CADILA HEALTHCARE LIMITED, priority 2018, published 2020)

Experiments:
[1] = test system: oxazolone induced atopic dermatitis in mice; assay: Ear thickness in oxazolone induced atopic dermatitis in mice; format: in vivo, female balb/c mice; set-up: Change in ear thickness: unit not given beside the values; details: for percentage inhibition in ear thickness (atopic dermatitis): topical; for % change: topical day 5 and day 6, ear thickness vs vehicle control; for Change in ear thickness: topical on left ear day 5 and day 6
Protocol: (§1) The 7-8 week old female balb/c mice used for the study were divided into four groups of six mice each. Animal shaved on their abdomen region. On day-1, Oxazolone (Sigma chemical Co. USA) was dissolved in ethanol and applied at a dose volume is 500 ug/100 μl/mouse on shaved abdomen side as sensitized dose. On day 5, basal ear thickness was measured and oxazolone (dissolved in acetone, (100 μg/20 μl)) applied on left side ear at a dose volume of 20 μl/mouse on day 5 and day 6. Post Two hours of oxazolone application, treatment drugs applied on left ear respectively. Treatment was applied on day 5 and day 6 and ear thickness was measured on day 5 (basal), day 6 and day 7.
All animals were assessed for the ear thickness measurement. Animals were sacrificed on day 7, Ear weight were taken and ear were collected for histology and gene expression.
as §1, with “into five” for “into four”, “20 μ/mouse” for “20 μl/mouse”
All animals were assessed for the ear thickness measurement. Animals were sacrificed on day 7, Ear weight were taken.

[2] = test system: cyclo-oxygenase enzymes (COX); details: background statement; cited from earlier work
[3] = Study-1, text, Apremilast 3%, Diclofenac 1.5%
[4] = Study-1, Apremilast 3%, Diclofenac 1.5%
[5] = Study-1, Apremilast 3%, Diclofenac 1.5%, vehicle control 0.3
[6] = Study-2, text, Apremilast 1%, Diclofenac 1%
[7] = Study-2, Apremilast 1%, Diclofenac 1%
[8] = Study-2, Apremilast 1%, Diclofenac 1%, vehicle control 0.44

CCOc1cc([C@@H](CS(C)(=O)=O)N2C(=O)c3cccc(NC(C)=O)c3C2=O)ccc1OC [Apremilast, (+)-2-[1-(3-ethoxy-4-methoxyphenyl)-2-methanesulfonylethyl]-4-acetylaminoisoindolin-1,3-dione]
percentage inhibition in ear thickness (atopic dermatitis) [1, 3]: 38% | % change [1, 4]: 38.6% | Change in ear thickness [1, 5]: 0.18 | percentage inhibition in ear thickness (atopic dermatitis) [1, 6]: 45% | % change [1, 7]: 45.1% | Change in ear thickness [1, 8]: 0.24

O=C([O-])Cc1ccccc1Nc1c(Cl)cccc1Cl.[Na+] [Diclofenac, sodium salt of [2-(2,6-Dichloroanilino)phenyl]acetic acid]
percentage inhibition in ear thickness (atopic dermatitis) [1, 3]: 64% | % change [1, 4]: 63.8% | Change in ear thickness [1, 5]: 0.11 | percentage inhibition in ear thickness (atopic dermatitis) [1, 6]: 37% | % change [1, 7]: 36.8% | Change in ear thickness [1, 8]: 0.28 | approximate relative COX-1/COX-2 specificity ratio [2]: one
